Laboratory results reported in patent US12661345B2, “Compositions for the treatment of hypertension” (The George Institute for Global Health, priority 2017, dated 2026).

Tested on: participants with migraine
Test: Safety: serious adverse events and adverse events of special interest in the 3×3 factorial trial
[1] = Anytime between Week 0 to Week 12, % of participants
[2] = Anytime between Week 0 to Week 12, n/N participants
[3] = Randomization, % of participants
[4] = Randomization, n/N participants

Excerpt: Tolerability: • a. Difference between groups in potentially related side-effects (dizziness, blurred vision, syncope/collapse/fall, ankle edema, skin rash, itching, gout, hyperkalemia, hypokalemia, hyponatremia, myalgia, insomnia, nightmares, rebound hypertension) • b. Difference between groups in participant withdrawals from treatment • 2. Safety: Percentage with any severe adverse event (SAE) • 3.
All participants reported SAEs and adverse events of special interest (AESI) from the time of informed consent until the end of the follow-up period and reported in the case report. AESIs included: • Dizziness • Hypotension • Pedal Edema • Headache • Muscle cramps • Bradycardia • Flushing • Hypersensitivity reactions (skin rashes, itching) • Gastrointestinal complaints • Myalgia • Syncope/Collapse/Fall • Gout • Insomnia • Nightmares • Rebound hypertension • Chest tightness/pain • Tremor/shaking • Irregular heartbeat/tachycardia Statistical Methods Statistical & Analytical Plans

CC(C)NCC(O)COc1cccc2ccccc12 (stereo not shown) [Propranolol, propranolol]
(90.0%): Headache [1] | Headache (Week 4, % of participants) | Headache (Week 13, % of participants)
3/10: Gastrointestinal complaints [2] | Muscle cramps [2] | Insomnia (Week 8, n/N participants)
9/10: Headache [2] | Headache (Week 4, n/N participants) | Headache (Week 13, n/N participants)
(80.0%): Headache (Week 8, % of participants) | Headache (Week 12, % of participants)
2/10: Myalgia [2] | Gastrointestinal complaints (Week 4, n/N participants) | Insomnia (Week 4, n/N participants) | Insomnia (Week 12, n/N participants) | Muscle cramps (Week 12, n/N participants) | Gastrointestinal complaints (Week 13, n/N participants) | Muscle cramps (Week 13, n/N participants) | Myalgia (Week 13, n/N participants) | Rebound hypertension (Week 16, n/N participants)
(30.0%): Gastrointestinal complaints [1] | Muscle cramps [1] | Insomnia (Week 8, % of participants)
(100.0%): Headache [3] | Headache (Week 16, % of participants)
(40.0%): Insomnia [1]
(10.0%): Bradycardia [1] | Nightmares [1] | Syncope [1] | Flushing [3] | Muscle cramps (Week 4, % of participants) | Myalgia (Week 4, % of participants) | Myalgia (Week 8, % of participants) | Bradycardia (Week 12, % of participants) | Gastrointestinal complaints (Week 12, % of participants) | Nightmares (Week 12, % of participants) | Syncope (Week 12, % of participants) | Pedal edema (Week 13, % of participants) | Irregular heartbeat/tachycardia (Week 16, % of participants) | Muscle cramps (Week 16, % of participants)
(0.0%): Any SAEs [1] | Falls [1] | Flushing [1] | Gout [1] | Pedal edema [1] | Any SAEs since the last visit? [3] | Bradycardia [3] | Falls [3] | Gastrointestinal complaints [3] | Gout [3] | Insomnia [3] | Muscle cramps [3] | Myalgia [3] | Nightmares [3] | Pedal edema [3] | Syncope [3] | Any SAEs since the last visit? (Week 4, % of participants) | Bradycardia (Week 4, % of participants) | Falls (Week 4, % of participants) | Flushing (Week 4, % of participants) | Gout (Week 4, % of participants) | Nightmares (Week 4, % of participants) | Pedal edema (Week 4, % of participants) | Syncope (Week 4, % of participants) | Any SAEs since the last visit? (Week 8, % of participants) | Bradycardia (Week 8, % of participants) | Falls (Week 8, % of participants) | Flushing (Week 8, % of participants) | Gastrointestinal complaints (Week 8, % of participants) | Gout (Week 8, % of participants) | Muscle cramps (Week 8, % of participants) | Nightmares (Week 8, % of participants) | Pedal edema (Week 8, % of participants) | Syncope (Week 8, % of participants) | Any SAEs since the last visit? (Week 12, % of participants) | Falls (Week 12, % of participants) | Flushing (Week 12, % of participants) | Gout (Week 12, % of participants) | Myalgia (Week 12, % of participants) | Pedal edema (Week 12, % of participants) | Any SAEs since the last visit? (Week 13, % of participants) | Bradycardia (Week 13, % of participants) | Falls (Week 13, % of participants) | Flushing (Week 13, % of participants) | Gout (Week 13, % of participants) | Insomnia (Week 13, % of participants) | Nightmares (Week 13, % of participants) | Rebound hypertension (Week 13, % of participants) | Syncope (Week 13, % of participants) | Any SAEs since the last visit? (Week 16, % of participants) | Bradycardia (Week 16, % of participants) | Falls (Week 16, % of participants) | Flushing (Week 16, % of participants) | Gastrointestinal complaints (Week 16, % of participants) | Gout (Week 16, % of participants) | Insomnia (Week 16, % of participants) | Myalgia (Week 16, % of participants) | Nightmares (Week 16, % of participants) | Pedal edema (Week 16, % of participants) | Syncope (Week 16, % of participants)
(20.0%): Myalgia [1] | Gastrointestinal complaints (Week 4, % of participants) | Insomnia (Week 4, % of participants) | Insomnia (Week 12, % of participants) | Muscle cramps (Week 12, % of participants) | Gastrointestinal complaints (Week 13, % of participants) | Muscle cramps (Week 13, % of participants) | Myalgia (Week 13, % of participants) | Rebound hypertension (Week 16, % of participants)
0.0%: Subjects with any serious adverse event (SAE) in 12 weeks (percent) (12 weeks)
0/10: Subjects with any serious adverse event (SAE) in 12 weeks (n/N) (12 weeks) | Any SAEs [2] | Falls [2] | Flushing [2] | Gout [2] | Pedal edema [2] | Any SAEs since the last visit? [4] | Bradycardia [4] | Falls [4] | Gastrointestinal complaints [4] | Gout [4] | Insomnia [4] | Muscle cramps [4] | Myalgia [4] | Nightmares [4] | Pedal edema [4] | Syncope [4] | Any SAEs since the last visit? (Week 4, n/N participants) | Bradycardia (Week 4, n/N participants) | Falls (Week 4, n/N participants) | Flushing (Week 4, n/N participants) | Gout (Week 4, n/N participants) | Nightmares (Week 4, n/N participants) | Pedal edema (Week 4, n/N participants) | Syncope (Week 4, n/N participants) | Any SAEs since the last visit? (Week 8, n/N participants) | Bradycardia (Week 8, n/N participants) | Falls (Week 8, n/N participants) | Flushing (Week 8, n/N participants) | Gastrointestinal complaints (Week 8, n/N participants) | Gout (Week 8, n/N participants) | Muscle cramps (Week 8, n/N participants) | Nightmares (Week 8, n/N participants) | Pedal edema (Week 8, n/N participants) | Syncope (Week 8, n/N participants) | Any SAEs since the last visit? (Week 12, n/N participants) | Falls (Week 12, n/N participants) | Flushing (Week 12, n/N participants) | Gout (Week 12, n/N participants) | Myalgia (Week 12, n/N participants) | Pedal edema (Week 12, n/N participants) | Any SAEs since the last visit? (Week 13, n/N participants) | Bradycardia (Week 13, n/N participants) | Falls (Week 13, n/N participants) | Flushing (Week 13, n/N participants) | Gout (Week 13, n/N participants) | Insomnia (Week 13, n/N participants) | Nightmares (Week 13, n/N participants) | Rebound hypertension (Week 13, n/N participants) | Syncope (Week 13, n/N participants) | Any SAEs since the last visit? (Week 16, n/N participants) | Bradycardia (Week 16, n/N participants) | Falls (Week 16, n/N participants) | Flushing (Week 16, n/N participants) | Gastrointestinal complaints (Week 16, n/N participants) | Gout (Week 16, n/N participants) | Insomnia (Week 16, n/N participants) | Myalgia (Week 16, n/N participants) | Nightmares (Week 16, n/N participants) | Pedal edema (Week 16, n/N participants) | Syncope (Week 16, n/N participants)
10/10: Headache [4] | Headache (Week 16, n/N participants)
1/10: Bradycardia [2] | Nightmares [2] | Syncope [2] | Flushing [4] | Muscle cramps (Week 4, n/N participants) | Myalgia (Week 4, n/N participants) | Myalgia (Week 8, n/N participants) | Bradycardia (Week 12, n/N participants) | Gastrointestinal complaints (Week 12, n/N participants) | Nightmares (Week 12, n/N participants) | Syncope (Week 12, n/N participants) | Pedal edema (Week 13, n/N participants) | Irregular heartbeat/tachycardia (Week 16, n/N participants) | Muscle cramps (Week 16, n/N participants)
8/10: Headache (Week 8, n/N participants) | Headache (Week 12, n/N participants)
4/10: Insomnia [2]
